Results as given in PMC12045974, “T cell toxicity induced by tigecycline binding to the mitochondrial ribosome” (Nature Communications, 2025).
Values joined by “and” are separate entries in the source; they are usually repeats but may differ in a detail not shown here. Equal values may be shown once.

What was measured:
[1] = system: CD4+ T cell subsets (Tn, Tcm, Tem); experiment: Proliferation of FACS-isolated naive, central memory and effector memory CD4+ T cells; format: cell-based, human
Experimental: Thawed PBMCs were washed with RPMI complemented with 10% FBS, 2.05 mM L-glutamine (Sigma), and 55 μM 2-ME (Gibco) before resting at 37 °C (5% CO2) for 30 min. After counting, cells were resuspended in FACS buffer at a density of 5 × 10^7 cells/ml. CD4^+ T cells were isolated using CD4^+ T cell negative isolation kits (Miltenyi Biotech) and enriched using CD4^+ T cell Enrichment kits (Miltenyi Biotech). Purified CD4^+ T cells were counted and stained with CTV dye and live/dead dye. Subsequently, surface makers were stained at 4 °C in FACS buffer (DPBS + 2% FBS). The following panels were used to classify human T CD4^+ cells from the live lymphocyte gate: naïve CD4^+ T cells: Aqua^-CD4^+CD45RA^+CD27^+; central memory CD4^+ T cells: Aqua^-CD4^+CD45RA^-CD27^+, effector memory CD4^+ T cells: Aqua^-CD4^+CD45RA^-CD27^-. After staining, cells were washed, resuspended and sorted using a FACSAria Fusion (BD Biosciences). Sorted cells were collected into PBS complemented with 2% FBS at 4 °C. Cells were then harvested via centrifugation and resuspended in RPMI-1640 ( + 10% FBS, 2.05 mM L-glutamine (Sigma), and 55 μM 2-ME (Gibco) before counting. Sorted CD4^+ subsets were counted and 85,000 cells per well seeded onto 96-well U-bottom plates with/without Human T-Activator CD3/CD28 beads (Invitrogen) at a 1:2.8 cell:bead ratio and 10 ng/ml IL-2 (Proteintech) in RPMI-1640 ( + 10% FBS, 2.05 mM L-glutamine (Sigma), and 55 μM 2-ME (Gibco). At the same time, tigecycline in serial concentrations (from 2.5 to 10 μM) was added. A half medium change took place after 3 days, and cells were harvested after 6 days for flow cytometry. Antibodies used in the study are presented in Supplementary Table 2.

CD4+ and CD8+ T cells = experiment: Mitochondrial mass by MitoTracker Green staining; format: cell-based, human; conditions: for mitochondrial mass (MitoTracker Green): 10 μM, after 24 h or 7 days of treatment
Experimental: After thawing frozen PBMCs, cells were washed with RPMI complemented with 10% FBS, 2.05 mM L-glutamine (Sigma), and 55 μM 2-ME (Gibco) and rested at 37 °C (5% CO2) for 30 min. 250,000 cells per well were seeded in 96-well U-bottom plates with/without Human T-Activator CD3/CD28 beads (Invitrogen) at a 1:1 ratio and 10 ng/ml IL-2 (Proteintech) in RPMI-1640 medium mentioned above. At the same time, antibiotics were added. For the short-term activation assay, cells were harvested 18 h post-stimulation and stained with Aqua fixable live/dead dye (Invitrogen) and surface markers. For the proliferation assays, cells were stained with CFSE (eBioscience) or Cell Trace Violet (ThermoFisher Scientific) dyes before seeding and stimulation, according to the manufacturer’s recommendations. For TCR priming experiments, tigecycline was added at 0, 24 or 72 h post-activation. For mitochondrial mass measuring, cells were stained with Mitotracker Green Fm Dye (Thermo Fisher Scientific) after incubation with Tigecycline. After incubation for 6 days with a half medium (complete, with antibiotics and IL-2) change after 3 days, cells were harvested via centrifugation, and stained with live/dead dye and surface markers for analysis by flow cytometry. The Foxp3/Transcription Factor Staining Buffer Set (Invitrogen) was used to fix cells according to the manufacturer’s instructions. The FACS gating strategy is shown in Supplementary Fig. 2D. Flow cytometry was carried out on a BD Celesta (BD Biosciences) and analyzed in FlowJo (TreeStar) software.

SMILES: CN(C)c1cc(NC(=O)CNC(C)(C)C)c(O)c2c1C[C@H]1C[C@H]3[C@H](N(C)C)C(O)=C(C(N)=O)C(=O)[C@@]3(O)C(O)=C1C2=O [Tigecycline, tigecycline]
- proliferation of naive, central memory and effector memory CD4+ T cells ([1]; 10 μM, 6 days): significantly inhibited the proliferation of all subsets
- % Cells in each division ([1]; Naïve, 2.5μM, division number 0): 4.49% and 2.85% and 0.99%
- % Cells in each division ([1]; Naïve, 2.5μM, division number 2): 44.1% and 38.6% and 39.3%
- % Cells in each division ([1]; Naïve, 2.5μM, division number 5): 0.076% and 0.28% and 0.23%
- % Cells in each division ([1]; Naïve, 2.5μM, division number 6): 0.17% and 0.1% and 0.16%
- % Cells in each division ([1]; Naïve, 2.5μM, division number 7): 0.25% and 0.12%
- % Cells in each division ([1]; Naïve, 5μM, division number 0): 3.52% and 9.14% and 5.5%
- % Cells in each division ([1]; Naïve, 5μM, division number 1): 30.8% and 43.7% and 27.9%
- % Cells in each division ([1]; Naïve, 5μM, division number 2): 51%
- % Cells in each division ([1]; Naïve, 5μM, division number 5): 0.058% and 0.021% and 0.055%
- % Cells in each division ([1]; Naïve, 5μM, division number 6): 0.28% and 0.21% and 0.25%
- % Cells in each division ([1]; Naïve, 5μM, division number 7): 0.45% and 0.34% and 0.31%
- % Cells in each division ([1]; Naïve, 10μM, division number 0): 20.7% and 12.2% and 12.7%
- % Cells in each division ([1]; Naïve, 10μM, division number 1): 58.7% and 45.6% and 58.3%
- % Cells in each division ([1]; Naïve, 10μM, division number 2): 19.7% and 37.8% and 26.9%
- % Cells in each division ([1]; Naïve, 10μM, division number 5): 0% and 0.056% and 0.037%
- % Cells in each division ([1]; Naïve, 10μM, division number 6): 0.22% and 0.27% and 0.31%
- % Cells in each division ([1]; Naïve, 10μM, division number 7): 0.47% and 0.48% and 0.72%
- % Cells in each division ([1]; TCM, 2.5μM, division number 0): 11.5% and 6.18% and 6.94%
- % Cells in each division ([1]; TCM, 2.5μM, division number 1): 38% and 27.5% and 31.5%
- % Cells in each division ([1]; TCM, 2.5μM, division number 2): 33.5% and 37.9% and 38.1%
- % Cells in each division ([1]; TCM, 2.5μM, division number 5): 0.31% and 0.62% and 0.44%
- % Cells in each division ([1]; TCM, 2.5μM, division number 6): 0.5% and 0.64% and 0.43%
- % Cells in each division ([1]; TCM, 2.5μM, division number 7): 0.62% and 0.7%
- % Cells in each division ([1]; TCM, 5μM, division number 0): 31.4% and 19.3% and 18.6%
- % Cells in each division ([1]; TCM, 5μM, division number 1): 46.4% and 46.1% and 47.3%
- % Cells in each division ([1]; TCM, 5μM, division number 2): 17% and 26.2% and 27.6%
- % Cells in each division ([1]; TCM, 5μM, division number 5): 0.095% and 0.16% and 0.1%
- % Cells in each division ([1]; TCM, 5μM, division number 6): 0.58% and 0.85% and 0.47%
- % Cells in each division ([1]; TCM, 5μM, division number 7): 1.11% and 1.15% and 0.74%
- % Cells in each division ([1]; TCM, 10μM, division number 0): 51.5% and 35.3% and 35.1%
- % Cells in each division ([1]; TCM, 10μM, division number 1): 39.1% and 48.8% and 52.5%
- % Cells in each division ([1]; TCM, 10μM, division number 2): 6.84% and 12.8% and 10.7%
- % Cells in each division ([1]; TCM, 10μM, division number 5): 0.11% and 0.14% and 0.05%
- % Cells in each division ([1]; TCM, 10μM, division number 6): 0.69% and 0.83% and 0.56%
- % Cells in each division ([1]; TCM, 10μM, division number 7): 1.26% and 0.83%
- mitochondrial mass (MitoTracker Green) (CD4+ and CD8+ T cells): no significant changes in mitochondrial mass
- mitochondrial mass (MitoTracker Green) (CD4+ and CD8+ T cells; listed as tigecyline): comparable mitochondrial mass
- mitochondrial mass relative to Unstim (=1), sheet sFig-1E+F (CD4+ and CD8+ T cells; 24H, CD4, Stim-10µM, per PBMC donor): 1.522 and 1.33 and 0.8198
- mitochondrial mass relative to Unstim (=1), sheet sFig-1E+F (CD4+ and CD8+ T cells; 24H, CD4, Unstim-10µM, per PBMC donor): 1.004 and 0.6673 and 1.041
- mitochondrial mass relative to Unstim (=1), sheet sFig-1E+F (CD4+ and CD8+ T cells; 24H, CD8, Unstim-10µM, per PBMC donor): 0.5804 and 1.017 and 1.063
- mitochondrial mass relative to Unstim (=1), sheet sFig-1E+F (CD4+ and CD8+ T cells; 7 days, CD4, STI 24H, per PBMC donor): 2.7235 and 3.361 and 2.725
- mitochondrial mass relative to Unstim (=1), sheet sFig-1E+F (CD4+ and CD8+ T cells; 7 days, CD4, STI 72H, per PBMC donor): 2.708 and 3.517 and 2.769
- mitochondrial mass relative to Unstim (=1), sheet sFig-1E+F (CD4+ and CD8+ T cells; 7 days, CD4, Stim-10µM, per PBMC donor): 2.414 and 2.323 and 2.6393
- mitochondrial mass relative to NO STI (=1), sheet sFig-1E+F (CD4+ and CD8+ T cells; 7 days, CD8, STI-10µM, per PBMC donor): 1.791 and 3.1924 and 2.433
